Broadly, the IC50 is the concentration that inhibits the measured activity by half.

These results are taken from article PMC9265830, “Purification and Identification of a Novel Angiotensin Converting Enzyme Inhibitory Peptide from the Enzymatic Hydrolysate of Lepidotrigla microptera” (Foods, 2022).

Data set [1] has as its target T1, ACE (Homo sapiens, UniProt P12821). Kind of data set: ACE-inhibitory activity (HHL substrate, hippuric acid by HPLC). It counts as biochemical. The settings on record: ultrafiltration, Sephadex G-15 and prep-HPLC fractions; chemically synthesized peptides; read-out: IC50 (ACE inhibition) of fractions and synthesized peptides (converted). Here is the method:
(§1) ACE-inhibitory activity was determined following the method of Cushman. The reaction system comprised a sample (10 μL), HHL (2.5 mM, 30 μL), and ACE solution (0.1 U/mL, 20 μL) in sodium borate buffer (pH 8.3, 0.3 M NaCl). The mixture of HHL and the sample was pre-incubated for 15 min at 37 °C before adding the ACE solution. The reaction was carried out for 40 min at 37 °C in a water bath and terminated by adding HCl (1 mol/L, 60 μL). Then 20 μL of the reaction mixture was injected into an HPLC system (Shimadzu, Japan) equipped with a C-18 column (150 × 4.6 mm, 5 μm). In order to detect the concentration of HA (hippuric acid), isocratic elution was performed for 25 min in 80% mobile phase A (0.05% Trifluoroacetic acid in H2O) and 20% mobile phase B (Acetonitrile) at a 0.8 mL/min flow rate, and the detection wavelength was 280 nm. The ACE-inhibitory activity was calculated according to the formula:ACE-inhibitory activity (%) = (A1 − A2)/A1(1) where A1 and A2 equal the peak areas of blank control and the sample, respectively.

Data set [2] in a line: Thermal stability of ACE inhibitory activity. It counts as physicochemical. As to the method:
as §1
The sample (0.2 mg/mL) was treated at various temperatures (20, 40, 60, 80, and 100 °C) for 1 h. After cooling the solution to indoor temperature (25 °C), the ACE inhibition activity was detected.

The nature of data set [3]: pH stability of ACE inhibitory activity. It counts as physicochemical. The settings on record: 0.2 mg/mL, 37 °C, 2 h, pH 3 to 11 (method: 2, 4, 6, 8, 10), readjusted to pH 7.0; read-out ACE inhibition. As to the method:
as §1
The ACE-inhibitory peptide solution (0.2 mg/mL) was incubated at different pH levels (2, 4, 6, 8, and 10) at 37 °C for 2 h, and the pH value was adjusted by adding HCl (1 mol/L) and NaOH (1 mol/L). Before the ACE inhibition rate was determined, the pH value was adjusted to 7.0.

For the next data set, the system named is pepsin, pancreatin. Kind of data set: Simulated gastrointestinal digestion. It is filed as in vitro ADME. The settings on record: 0.2 mg/mL; pepsin 0.05% pH 2.0 2 h 37 °C, then pancreatin 0.05% pH 7.5 2 h 37 °C; read-out ACE inhibition. Here is the method: as §1
Simulated gastrointestinal digestion of ACE-inhibitory peptides was conducted following the method of Lai et al. with slight modifications. […]

Data set [4] addresses T1, ACE. The experiment in a line: Inhibitory kinetics study (Lineweaver–Burk plots). It counts as biochemical. The settings on record: for Vmax of the enzyme reaction: HHL 1-5 mM, Vmax without peptide 20 mM/min. Here is the method:
Different concentrations of ACE-inhibitory peptide (0, 60, and 120 μM) were mixed with various concentrations of HHL solution (1, 2, 3, 4 and 5 mM) and pre-incubated for 5 min at 37 °C. Then the reaction was initiated by adding 80 µL of ACE and terminated by adding 20 µL of 1 mol/L HCl. The Lineweaver–Burk plot of the reciprocal of the HHL concentration (1/[s]) and the HA production rate (1/[v]) were used to analyze the inhibitory kinetics of peptide.

“Also recorded” adds a separate entry of the source. Where no end group is shown, it is not given here.

T1 sequence (P12821 30-1306, species assumed): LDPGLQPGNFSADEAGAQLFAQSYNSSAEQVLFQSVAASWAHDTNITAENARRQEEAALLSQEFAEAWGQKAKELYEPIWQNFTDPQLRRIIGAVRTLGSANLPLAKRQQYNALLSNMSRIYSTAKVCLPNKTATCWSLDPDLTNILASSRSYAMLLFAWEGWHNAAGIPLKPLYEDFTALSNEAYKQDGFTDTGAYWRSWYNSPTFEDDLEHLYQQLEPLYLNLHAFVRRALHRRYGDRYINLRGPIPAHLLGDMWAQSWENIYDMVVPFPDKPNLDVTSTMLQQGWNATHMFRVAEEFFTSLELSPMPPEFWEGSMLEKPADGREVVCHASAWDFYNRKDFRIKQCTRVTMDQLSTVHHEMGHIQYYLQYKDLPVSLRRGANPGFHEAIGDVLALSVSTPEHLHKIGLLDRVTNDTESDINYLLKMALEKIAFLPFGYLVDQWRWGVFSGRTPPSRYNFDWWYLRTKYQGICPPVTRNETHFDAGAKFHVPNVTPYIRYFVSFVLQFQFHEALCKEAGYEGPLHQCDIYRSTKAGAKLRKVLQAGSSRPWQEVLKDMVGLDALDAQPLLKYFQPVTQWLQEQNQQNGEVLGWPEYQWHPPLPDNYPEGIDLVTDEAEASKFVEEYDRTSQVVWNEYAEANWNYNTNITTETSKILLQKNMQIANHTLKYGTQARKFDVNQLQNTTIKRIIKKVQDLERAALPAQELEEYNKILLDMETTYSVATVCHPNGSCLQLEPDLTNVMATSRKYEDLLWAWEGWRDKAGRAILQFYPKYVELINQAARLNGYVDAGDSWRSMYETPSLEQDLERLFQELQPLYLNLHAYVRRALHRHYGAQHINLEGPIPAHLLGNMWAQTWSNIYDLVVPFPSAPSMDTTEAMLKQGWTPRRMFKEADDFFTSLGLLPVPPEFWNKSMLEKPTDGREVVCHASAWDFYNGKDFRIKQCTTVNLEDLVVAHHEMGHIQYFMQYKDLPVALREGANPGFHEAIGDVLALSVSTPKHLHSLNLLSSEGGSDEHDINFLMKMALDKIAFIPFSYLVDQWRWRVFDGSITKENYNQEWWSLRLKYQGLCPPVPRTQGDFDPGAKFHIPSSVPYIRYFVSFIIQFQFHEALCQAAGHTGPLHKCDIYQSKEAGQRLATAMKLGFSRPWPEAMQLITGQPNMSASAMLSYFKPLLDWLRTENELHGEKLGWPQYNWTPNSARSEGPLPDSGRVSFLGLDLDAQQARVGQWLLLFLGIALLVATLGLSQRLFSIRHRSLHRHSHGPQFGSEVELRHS

As to “YLTLFLLT [YLTLFLLT, Tyr-Leu-Thr-Leu-Phe-Leu-Leu-Thr]”, on ACE [1], the IC50 was 214 µM.

Regarding `CC(C)C[C@H](NC(=O)CNC(=O)[C@H](C)NC(=O)[C@@H](NC(=O)[C@H](CC(C)C)NC(=O)[C@@H](N)CC(=O)O)[C@@H](C)O)C(=O)N[C@@H](CC(C)C)C(=O)N[C@@H](CCC(=O)O)C(=O)O` [DLTAGLLE, Phe-Leu-Thr-Ala-Gly-Leu-Leu-Asp], in data set [2] (0.2 mg/mL, 1 h, temperature above 60 °C (up to 100 °C), read-out ACE inhibition), the “ACE-inhibitory activity after heat treatment” value was “slightly decreased”. The “ACE-inhibitory rate after heat treatment” value in data set [2] (0.2 mg/mL, 1 h, temperature range 20 to 60 °C, read-out ACE inhibition) was “remained relatively stable”. For the same molecule, in data set [2] (temperatures (<100 °C) and pH values (3.0–11.0)), the “Stability of ACE-inhibitory activity (abstract summary)” value was “stable”. Also, in data set [3], the “ACE-inhibitory activity after pH treatment” value is “maintained high ACE-inhibitory activity at all pH values”. The “Relative ACE inhibition activity before and after digestion” value with pepsin, pancreatin was “retained after gastrointestinal digestion; also recorded: essentially unchanged”. Also, the results for the “Vmax of the enzyme reaction” value at ACE [4] (60 μM peptide) and at ACE [4] (120 μM peptide) were 5 mM/min and 2.78 mM/min, respectively. The Inhibitory kinetic mechanism entry on ACE [4] (Lineweaver–Burk plot) is listed as “noncompetitive”.
